Results: US9157062B2, “Compositions and methods for promoting the generation of PDX1+ pancreatic cells” (President and Fellows of Harvard College, priority 2008, dated 2015)
Where a name gives a salt, the structure may show the parent alone. Read-outs that look alike come from different tables or passages of the source.

T1: PKCμ (Homo sapiens, UniProt Q15139)
T1 sequence (Q15139 1-912): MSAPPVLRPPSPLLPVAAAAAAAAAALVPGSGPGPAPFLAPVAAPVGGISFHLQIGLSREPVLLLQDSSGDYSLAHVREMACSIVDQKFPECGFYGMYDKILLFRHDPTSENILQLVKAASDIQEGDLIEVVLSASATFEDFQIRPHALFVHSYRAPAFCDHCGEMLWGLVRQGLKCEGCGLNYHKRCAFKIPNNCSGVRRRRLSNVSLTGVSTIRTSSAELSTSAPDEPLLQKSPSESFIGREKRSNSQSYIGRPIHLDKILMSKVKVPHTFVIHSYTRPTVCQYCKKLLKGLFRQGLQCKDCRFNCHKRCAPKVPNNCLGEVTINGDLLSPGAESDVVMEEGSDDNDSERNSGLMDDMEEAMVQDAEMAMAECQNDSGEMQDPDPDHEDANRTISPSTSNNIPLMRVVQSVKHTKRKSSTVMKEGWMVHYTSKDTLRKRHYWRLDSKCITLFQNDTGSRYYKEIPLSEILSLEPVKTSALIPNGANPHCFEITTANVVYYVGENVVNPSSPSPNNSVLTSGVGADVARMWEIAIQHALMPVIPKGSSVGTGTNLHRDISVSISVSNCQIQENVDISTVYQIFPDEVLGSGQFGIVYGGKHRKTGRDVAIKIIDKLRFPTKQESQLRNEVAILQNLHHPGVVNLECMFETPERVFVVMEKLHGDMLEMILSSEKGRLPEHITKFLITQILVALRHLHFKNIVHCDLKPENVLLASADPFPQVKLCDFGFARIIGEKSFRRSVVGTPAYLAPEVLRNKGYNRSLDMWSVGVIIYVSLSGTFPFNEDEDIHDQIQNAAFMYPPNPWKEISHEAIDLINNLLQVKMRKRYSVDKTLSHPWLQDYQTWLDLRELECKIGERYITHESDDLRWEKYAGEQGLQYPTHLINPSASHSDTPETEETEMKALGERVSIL

B1: FGF10: mitogen (fibroblast growth factor) reported to be involved in pancreatic development, from R&D systems (protein, UniProt O15520 38-208, looked up)
Fibroblast growth factor 10: QALGQDMVSPEATNSSSSSFSSPSSAGRHVRSYNHLQGDVRWRKLFSFTKYFLKIEKNGKVSGTKKENCPYSILEITSVEIGVVAVKAINSNYYLAMNKKGKLYGSKEFNNDCKLKERIEENGYNTYASFNWQHNGRQMYVALNGKGAPRRGQKTRRKNTSAHFLPMVVHS

What was measured:
[1] = test system: HUES8-derived population (Pdx1+ cells); assay: Pdx1 antibody staining of treated HUES8-derived population; assay type: cell-based, human; details: for percentage of Pdx1+ cells, PKC antagonists in the presence of ILV: 300 nM ILV plus 1 μM BISI or 10 μM Gö 6983, 4 days; for percentage of Pdx1+ cells, PKC agonists in the absence of ILV: HUES8-derived definitive endoderm population, 500 nM TPB or 14 nM PMA
Experimental: (§1) To generate a starting population, HUES cells were cultured on MEF feeder cells until 80-90% confluent, then treated with 25 ng/ml Wnt3a (R&D systems)+100 ng/ml Activin A (R&D systems) in advanced RPMI (A-RPMI, Invitrogen) supplemented with 1×L-Glu and 1×PS for 1 day, and then 100 ng/ml Activin A in A-RPMI supplemented with 1×L-Glu, 1×PS and 0.2% FBS (Invitrogen). Two days later, the media was changed to 50 ng/ml FGF10 (R&D systems)+0.25 μM KAAD-CYC (Calbiochem) in A-RPMI supplemented with 1×L-Glu, 1×PS and 2% FBS and maintained for additional 2 days. Cells were then transferred to 50 ng/ml FGF10+0.25 μM KAAD-CYC+2 μM RA (Sigma) in DMEM supplemented with 1×L-Glu, 1×PS, 1×B27 (Invitrogen) and cultured for an additional 4 days. ILV was obtained from Axxora, KAAD-CYC, TPB, PMA, BISI, Gö 6983, U0126 and PD98059 were obtained from Calbiochem and RA were obtained from Sigma.
(§2) Cells were fixed with 10% formalin solution (Sigma) for 20 min at room temperature. Immunostaining was carried out with standard protocols. The following primary antibodies were used: goat anti-Pdx1 (1:500; R&D system); rabbit anti-FOXA2 (1:500; Upstate); rabbit anti-HNF6 (1:200; Santa Cruz Biotech); guinea pig anti-insulin (1:1000; Dako); rabbit anti-c-peptide (1:500; Linco); rabbit anti-amylase (1:200, Sigma); goat anti-HNF1β (1:100, Santa Cruz Biotech); and biotinylated DBA (1:400; Vector Lab). Alexa-488-, Alexa-555, and Alexa-647-conjugated donkey antibodies against mouse, rabbit, guinea pig and goat, and Pacific Blue conjugate-streptavidin (Invitrogen) were used at 1:300 dilution.
To determine whether PKC signaling is being activated in HUES-derived cells, HUES8-derived definitive endoderm population was treated with two PKC agonists, TPB ((2S,5S)-(E,E)-8-(5-(4-(trifluoromethyl)phenyl)-2,4-pentadienoylamino)benzolactam) and PMA (phorbol-12-myristate-13-acetate), in the absence of ILV. […] Furthermore, HUES8-derived population was treated with two PKC antagonists, BISI (Bisindolylmaleimide I) and Gö 6983, in the presence of ILV.
Experiments were performed to monitor downstream signaling by PKC. Since ERK signaling has been reported to be regulated by PKC (Ueda et al., 1996), the activity of ERK signaling was examined with Western blotting to detect the phosphorylation of ERK1/2 at Thr-202/Tyr-204.

[2] = test system: HUES9-derived population (Pdx1+ cells); assay: High throughput screen for compounds increasing Pdx1+ cells; assay type: cell-based, human; details: HUES9-derived cells, 10 μM, 1 μM and 0.1 μM, four days
Experimental: as §1
For a high throughput screen, the starting material was hESCs (HUES9 cells) that were induced to pancreatic lineage using a slightly modified version of previously published protocols (D'Amour et al., 2006; Jiang et al., 2007), as described in Example 1. After 9 days of stepwise differentiation, a heterogeneous population of cells was generated containing cells that stained strongly, weakly or not at all with a Pdx1 antibody. Any cell that stained with the Pdx1 staining antibody was counted as Pdx1^+ cells regardless of staining intensity. Together, the Pdx1^+ cells comprises 5.1±1.8% of the total cell number.
To carry out the screen, the cells were trypsinized and plated on 804G-coated 384-well plates at 6000 cells/well using chemically defined media (DMEM supplemented with 2 mM L-Glu, 1×PS, 1×B27). After overnight incubation, compounds were screened by adding them to provide a final concentration of 10 μM, 1 μM and 0.1 μM. Four days later, the cells were stained with Pdx1 antibody and the plates were analyzed with Opera high content screening system (PerkinElmer).
The wells in which the percentage of Pdx1^+ cells is higher than present at day 1 and higher than day 5 treated with DMSO were selected as primary hits. Compounds that increase both the number and percentage of Pdx1^+ cells were picked as primary hits. Eleven compounds produced hits. (FIG. 7, Table I in FIG. 9 and formulas in FIG. 10). These eleven compounds were (−)-Indolactam V (FIG. 1c and Compound I in Table 1) boldine (Compound II), rotenone (Compound III), ethopropazine hydrochloride (Compound IV), cedrelone (Compound V), prieurianin (Compound VI), strophanthidin (Compound VII), trimeprazine tartrate (Compound VIII), terconazole (Compound IX), dimethisoquin hydrochloride (Compound X), harmine hydrochloride (Compound XI).
as §2

PKCμ = biological target: T1, PKCμ; details: Gschwendt et al., 1996; cited from earlier work

Row | Molecule | primary hits (increase both the number and percentage of Pdx1+ cells) [2] | further results
1 | CN(C)CCCn1cc(C2=C(c3c[nH]c4ccccc34)C(=O)NC2=O)c2ccccc21 [BISI, Bisindolylmaleimide I] | – | percentage of Pdx1+ cells, PKC antagonists in the presence of ILV ([1]; HUES8-derived population): 0.6±0.1%
2 | COc1cc2c(cc1O)C[C@H]1c3c(cc(O)c(OC)c3-2)CCN1C [Compound II, boldine] | hits | –
3 | C=C(C)[C@H]1Cc2c(ccc3c2O[C@@H]2COc4cc(OC)c(OC)cc4[C@@H]2C3=O)O1 [Compound III, rotenone] | hits | –
4 | CCN(CC)C(C)CN1c2ccccc2Sc2ccccc21 (stereo not drawn) [Compound IV, ethopropazine hydrochloride] | hits | –
5 | CC(C)N1CCN(c2ccc(OCC3COC(Cn4cncn4)(c4ccc(Cl)cc4Cl)O3)cc2)CC1 (stereo not drawn) [Compound IX, terconazole] | hits | –
6 | N#CC(=C(/N)Sc1ccccc1N)/C(C#N)=C(\N)Sc1ccccc1N [Compound U0126] | – | percentage of Pdx1+ cells, MEK/ERK inhibitors together with ILV [1]: 0.3±0.2%
7 | CC1(C)C(=O)C=C[C@@]2(C)C1=C(O)C(=O)[C@]1(C)[C@@H]2CC[C@@]2(C)[C@H](c3ccoc3)C[C@H]3O[C@]321 [Compound V, cedrelone] | hits | –
8 | C=C1[C@@H]([C@@]2(C)[C@@H](OC(C)=O)CC(=O)O[C@](C)(COC(C)=O)[C@@H]2C(=O)OC)[C@@H](OC=O)[C@H](OC(=O)[C@H](O)[C@H](C)CC)[C@@]2(C)[C@H](c3ccoc3)CC(=O)[C@]12O [Compound VI, prieurianin] | hits | –
9 | C[C@]12CC[C@H]3[C@@H](CC[C@]4(O)C[C@@H](O)CC[C@]34C=O)[C@@]1(O)CC[C@@H]2C1=CC(=O)OC1 [Compound VII, strophanthidin] | hits | –
10 | CCCCc1cc2ccccc2c(OCCN(C)C)n1 [Compound X, dimethisoquin hydrochloride] | hits | –
11 | COc1ccc2c(c1)[nH]c1c(C)nccc12.Cl [Compound XI, harmine hydrochloride] | hits | –
12 | COc1ccc2c(c1)c(C1=C(c3c[nH]c4ccccc34)C(=O)NC1=O)cn2CCCN(C)C [Gö 6983] | – | suppression of PKCμ kinase activity (PKCμ): not effective; percentage of Pdx1+ cells, PKC antagonists in the presence of ILV ([1]; HUES8-derived population): 0.8±0.2%
13 | COc1cccc(-c2cc(=O)c3ccccc3o2)c1N [PD098059] | – | percentage of Pdx1+ cells, MEK/ERK inhibitors together with ILV ([1]; 300 nM ILV plus 50 μM PD098059 or 10 μM U0126, 4 days): 0.4±0.2%
14 | CCCCCCCCCCCCCC(=O)O[C@@H]1[C@@H](C)[C@@]2(O)[C@@H](C=C(CO)C[C@]3(O)C(=O)C(C)=C[C@@H]23)[C@@H]2C(C)(C)[C@]12OC(C)=O [PMA, phorbol-12-myristate-13-acetate] | – | percentage of Pdx1+ cells, PKC agonists in the absence of ILV ([1]; 4 days): 21.3±4.0%
15 | CC(C)[C@H]1C(=O)N[C@H](CO)Cc2cc(NC(=O)/C=C/C=C/c3ccc(C(F)(F)F)cc3)ccc2N1C [TPB, (2S,5S)-(E,E)-8-(5-(4-(trifluoromethyl)phenyl)-2,4-pentadienoylamino)benzolactam] | – | percentage of Pdx1+ cells, PKC agonists in the absence of ILV ([1]; 4 days): 15.4±2.9%
16 | trimeprazine tartrate [Compound VIII] | hits | –
17 | B1 | – | percentage of cells stained by Pdx1 antibody ([1]; HUES8-derived population, 4 days, 300 nM ILV and/or 50 ng/ml FGF10): 5.7±2.3%
